{"source": "patent US6410249B1", "about": "“Odorant receptors” (priority 1999, dated 2002)", "molecular_target": "T1, receptor 5.24 (Carassius auratus, UniProt Q9PW88)", "T1 construct": "The receptor 5.24 full length cDNA detects 1-2 bands in genomic DNA blots; expressed in transfected cells; host or cells: HEK 293 cells expressing SV40 large T antigen (293-TSA)", "T1 sequence (Q9PW88 25-877)": "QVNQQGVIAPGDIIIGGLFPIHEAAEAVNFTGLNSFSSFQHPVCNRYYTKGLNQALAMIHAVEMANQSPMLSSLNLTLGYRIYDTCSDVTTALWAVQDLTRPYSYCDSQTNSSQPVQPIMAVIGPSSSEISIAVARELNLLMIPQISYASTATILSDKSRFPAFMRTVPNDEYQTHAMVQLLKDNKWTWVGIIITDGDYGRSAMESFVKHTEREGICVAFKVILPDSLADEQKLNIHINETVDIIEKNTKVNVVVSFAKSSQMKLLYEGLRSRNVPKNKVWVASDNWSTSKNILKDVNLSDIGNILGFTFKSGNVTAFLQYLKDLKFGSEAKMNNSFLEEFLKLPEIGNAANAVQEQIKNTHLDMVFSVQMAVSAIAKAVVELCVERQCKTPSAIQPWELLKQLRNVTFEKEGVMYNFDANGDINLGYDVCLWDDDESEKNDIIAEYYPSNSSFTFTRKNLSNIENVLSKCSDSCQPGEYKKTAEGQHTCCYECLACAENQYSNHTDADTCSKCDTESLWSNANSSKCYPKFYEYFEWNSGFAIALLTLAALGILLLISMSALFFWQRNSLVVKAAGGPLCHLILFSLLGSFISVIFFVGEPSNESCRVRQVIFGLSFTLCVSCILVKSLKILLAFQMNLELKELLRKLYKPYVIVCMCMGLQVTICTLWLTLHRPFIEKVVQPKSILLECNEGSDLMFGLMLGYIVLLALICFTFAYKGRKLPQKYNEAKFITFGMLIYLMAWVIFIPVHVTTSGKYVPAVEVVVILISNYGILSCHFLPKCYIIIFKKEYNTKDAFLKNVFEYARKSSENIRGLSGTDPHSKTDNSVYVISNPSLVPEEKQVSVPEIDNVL", "assay": "3H-L-arginine saturation binding to membranes of receptor 5.24-expressing HEK 293 cells", "design": "species or system goldfish", "from_the_text": "High-Affinity Binding of Radiolabeled L-Arginine to the Cloned Goldfish Odorant Receptor. To determine the affinity of the cloned goldfish amino acid receptor for basic amino acids, we characterized the ligand-receptor interaction by radiolabeled ligand binding to receptors expressed in mammalian cells. Human embryonic kidney (HEK) 293 cells were transfected with expression plasmids containing the receptor 5.24 cDNA insert. […] We next wished to determine what second messenger pathway receptor 5.24 couples to in HEK 293 cells. Control cells or cells expressing receptor 5.24 were exposed to varying concentrations of arginine and assayed for the accumulation of IP3 and cAMP.\nMammalian Cell Culture and DNA Transfections. For cell transfections, the receptor 5.24 cDNA insert was subcloned into two expression vectors: CMVI, which utilizes a human cytomegalovirus (CMV) immediate early promoter-enhancer plus the CMV intron A sequence to drive expression, and 608RX-2.2L, which is similar to CMVI except the cDNA insert is followed by an internal ribosome entry site (IRES)—enhanced green fluorescent protein (EGFP) coding sequence; 608RX-2.2L also contains a puromycin resistance gene. For transient assays, HEK 293 cells expressing the SV40 large T antigen (293 TSA cells) were transfected with the CMVI-receptor 5.24 or CMVI control plasmid using lipofectamine (Life Technologies) and harvested at 48 hours for membrane preparations. For stable cell lines, 293-TSA cells were transfected with the 608RX-2.2L-receptor 5.24 plasmid or a control 608RX-2.2L plasmid and selected in puromycin. Colonies showing high levels of EGFP fluorescence (as judged by epifluorescence microscopy) were picked, expanded, and screened for 3H-L-arginine binding (see below). In five independent receptor 5.24-transfected stable cell lines, receptor densities (Rt) varied between 0.5 and 6.0 pmol L-arginine binding sites/mg membrane protein. […] All competition binding assays and signal transduction studies were performed using the stable cell line 5.24-20 (Rt=2.0 pmol /mg) and a control cell line (2.2-9) stably transfected with vector alone (Rt=0.03 pmol/mg).\nMembrane Preparations and Ligand Binding Assays. Membranes for ligand binding assays were prepared by washing confluent cells three times with phosphate buffered saline (PBS), detaching cells with a PBS-based enzyme-free dissociation solution, and resuspending cells in ice-cold 5.0 mM Hepes, pH 7.4, 1.0 mM EDTA, 1.0 μg/ml leupeptin, 0.5 mM PMSF. All subsequent manipulations were performed on ice. After a 30 min incubation, the cell suspension was homogenized and centrifuged at 100,000×g for 30 min. Cell membrane pellets were washed twice by resuspension and centrifugation in binding buffer (20 mM Hepes, pH 7.4, 1.0 mM EDTA, 2.0 mM MgCl2, 1.0 μg/ml leupeptin, 0.5 mM PMSF), resuspended in binding buffer, and frozen at −80° C.\nSaturation binding assays were performed using 20-25 μg of membrane protein in a final volume of 100 μl binding buffer and increasing concentrations of [2,3-3H] L-arginine (specific activity=40 Ci/mmol; Dupont NEN). Non-specific binding was measured in the presence of 500 μM unlabeled L-arginine. Competition assays were performed with 500 nM [2,3-3H] […] Filters were washed three times with 4.0 ml ice cold 20 mM Hepes, pH 7.4, and retained radioactivity was measured by scintillation counting. […] Data were analyzed by nonlinear curve fitting using Origin software (Microcal). […]", "note": "Where two headings read alike, the source gives them in different places."}
{"smiles": "N=C(N)NCCC[C@H](N)C(=O)O", "note": "[L-Arginine]", "values": [{"measurement": "Kd", "setting": "mean±SEM, n=4, read-out: dissociation constant (Kd)", "value": "121 ± 33", "unit": "nM"}, {"measurement": "Hill coefficient", "setting": "mean±SEM, n=4 determinations", "value": "0.95±0.07"}, {"measurement": "Kd", "setting": "range of n=4 determinations, read-out: dissociation constant (Kd), range", "value": "52 to 207", "unit": "nM"}, {"measurement": "Kd", "setting": "summary statement, read-out: Kd (high affinity interaction)", "value": "~100", "unit": "nM"}]}
